Data on one molecule can be found in patent US7910141B2, “Antiallergic composition” (Sapporo Breweries Limited, priority 2005, dated 2011).

Counter-ions that a name gives are not always drawn.

This test relates to ICR mice. As to the kind of experiment: DNP-HSA-induced auricular edema in mice (passive cutaneous anaphylaxis). The test is classed as in vivo, mouse. As to conditions: FIG. 8 experiment. The method, then: Inhibiting Action of Hop Water Extract on DNP-HSA-Induced Auricular Edema in Mice: • Six-week-old ICR mice (male or female; Charles River Laboratories, Japan Inc.) were separated into 4-5 per cage and raised at room temperature (24±2° C.) and 55±15% humidity, with a 12 hour light/dark cycle (light: 8:00-20:00). After preparatory rearing for at least one week, they were provided for the test. A hop pellet water extract, hop leaf water extract or ketotifen fumarate aqueous solution (10 mL/kg) was forcedly administered orally to each test group, while 10 mL/kg of distilled water was forcedly administered orally to the control group. The hop pellet water extract was prepared by adding hop pellets (Czech Saaz) to distilled water to 10% (w/w) and extracting overnight at 4° C., and then centrifuging at 3000 rpm for 10 minutes and filtering. The hop leaf water extract was prepared by adding dry hop leaves (Kokusan hop young leaves) to distilled water to 10% (w/w) and extracting overnight at 4° C., and then centrifuging at 3000 rpm for 10 minutes and filtering. The ketotifen fumarate aqueous solution was prepared by dissolving in distilled water to a concentration of 0.5 mg/mL.
At 1 hour after oral administration, 20 μL of 10 μg/mL mouse anti-DNP-IgE antibody (Sigma) was intradermally injected into one auricle of each mouse, while 20 μL of physiological saline (PS) was intradermally injected into the other auricle. […] The auricular thickness before antigen administration and 30 minutes after antigen administration was measured three times each using a thickness gauge, and the auricular edema ratio and auricular thickness increase were determined. […] The auricular edema ratio (%) was calculated by the formula: (Mean auricular thickness 30 minutes after antigen administration−mean auricular thickness before antigen administration)×100/mean auricular thickness […], and the auricular thickness increase (mm) was calculated by the formula: Mean auricular thickness 30 minutes after antigen administration−mean auricular thickness before antigen administration.

Setting [1] is: oral 10 mL/kg, intradermal injection of IgE antibody, 30 minutes after antigen.

On to `CN1CCC(=C2c3ccccc3CC(=O)c3sccc32)CC1` [ketotifen fumarate], for which, where the note is “ketotifen p<0.05, hop extracts p value of 0.08, critical region 5%”, the “auricular edema ratio compared to the distilled water-administered group (t-test)” value is given as “significantly inhibited”. For the same molecule, under setting [1], the auricular edema ratio came out at 12.7±5.4% and the auricular thickness increase was 0.045±0.020 mm.
